Results reported in patent US20150329918A1, “JAGGED1 AS A MARKER AND THERAPEUTIC TARGET FOR BREAST CANCER BONE METASTASIS” (The Trustees of Princeton University, priority 2011, published 2015).

Columns and labels:
[1] = tested on: MDA231 sublines (SCP28 tumor cells); assay: Proliferation of tumor cells cultured alone; type: cell-based, human
Notch reporter = Notch reporter assay in MC3T3-E1 osteoblasts cocultured with JAG1 OE tumor cells; type: cell-based, mouse; conditions: 6-fold increase induced by JAG1 OE tumor cell coculture; FIG. 7A
Experimental: For transfection experiments, MC3T3-E1 osteoblasts were seeded at 2×10^5 cells/well in 12-well plates and grown to 95% confluence. For reporter assays, the firefly luciferase Notchreporter (Zeng et al., 2005, which is incorporated herein by reference as if fully set forth) and cytomegalovirus (CMV)-Renilla luciferase control (Promega) plasmids were transfected using Lipofectamine 2000 at concentrations designated by the manufacturer's instructions. After 4 hours, the transfection media was changed to regular media containing 1×10^5 vector control or JAG1 OE tumor cells per well and plated in triplicate in the presence of DMSO or MRK-003. Following 2 days, the coculture was lysed and subjected to a luciferase assay in which firefly counts (Notch reporter activity) was divided by renilla counts to normalize for transfection efficiency. For siRNA transfection experiments, a scrambled control siRNA or two distinct targeting siRNAs against Rbpj #1-[…] [SEQ ID NO: 6] and #2-[…] [SEQ ID NO: 7] or Hey1 #1-[…] [SEQ ID NO: 8] and #2-[…] [SEQ ID NO: 9] […] Following 6 days, the coculture was lysed and subjected to a luciferase assay to selectively quantify the number of tumor cells. For gene expression analysis, RNA from cocultures was collected in RLT lysis buffer, extracted with RNeasy mini kit (Qiagen), and subjected to quantitative RT-PCR.

gamma-secretase = conditions: Lewis et al., 2007; cited from earlier work
[2] = LoRusso et al, AACR 2009; cited from earlier work

## O=S1(=O)N[C@@]2(CN1CC(F)(F)F)[C@@H]1CC[C@H]2Cc2ccc(/C=C/CN3CCC(C(F)(F)F)CC3)cc2C1 [MRK-003]
[1]; JAG1 OE SCP28 without osteoblasts, FIGS. 9B-9C
  proliferative ability of tumor cells cultured alone: did not affect
[1]; relatively low concentrations sufficient to inhibit Notch in bone-specific cells
  proliferation assays of MDA231 sublines, control vs treated: no difference
Notch reporter
  Notch activity (Notch reporter): abolished
gamma-secretase
  potency inhibiting gamma-secretase-mediated cleavage of Notch to NICD: sub-nanomolar
[2]
  clinical responses with once-weekly dosing: strong clinical responses
  tolerability of once-weekly dosing in the clinic: well-tolerated
